According to PubChem BioAssay (NCI):
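96-well plates; 48 h exposure; 5 concentrations. Endpoints by linear interpolation between flanking doses. Not reached: highest tested concentration assigned. GI50 is the concentration that inhibits growth by half. TGI is the concentration that stops growth completely.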

What was measured:
Assay in all cases: DTP human tumour cell line panel, 48 h
HCC-2998 colon = system: HCC-2998 colon
MDA-N = system: MDA-N
CAKI-1 renal = system: CAKI-1 renal
HOP-62 NSCLC = system: HOP-62 NSCLC
OVCAR-5 ovarian = system: OVCAR-5 ovarian
COLO 205 colon = system: COLO 205 colon
LOX IMVI melanoma = system: LOX IMVI melanoma
NCI-H522 lung = system: NCI-H522 lung
SK-MEL-28 melanoma = system: SK-MEL-28 melanoma
EKVX NSCLC = system: EKVX NSCLC

| Compound | TGI (HCC-2998 colon) [µM] | TGI (MDA-N) [µM] | TGI (CAKI-1 renal) [µM] | TGI (HOP-62 NSCLC) [µM] | TGI (OVCAR-5 ovarian) [µM] | TGI (COLO 205 colon) [µM] | TGI (LOX IMVI melanoma) [µM] | TGI (NCI-H522 lung) [µM] | TGI (SK-MEL-28 melanoma) [µM] | TGI (EKVX NSCLC) [µM] | GI50 (HCC-2998 colon) [µM] | GI50 (CAKI-1 renal) [µM] | GI50 (HOP-62 NSCLC) [µM] | GI50 (OVCAR-5 ovarian) [µM] | GI50 (COLO 205 colon) [µM] | GI50 (LOX IMVI melanoma) [µM] | GI50 (NCI-H522 lung) [µM] | GI50 (SK-MEL-28 melanoma) [µM] | GI50 (EKVX NSCLC) [µM] |
| --- | --- | --- | --- | --- | --- | --- | --- | --- | --- | --- | --- | --- | --- | --- | --- | --- | --- | --- | --- |
| COC1=C(C)C(=O)c2c(c(COC(N)=O)c3n2CC(OC(C)=O)C3OC(C)=O)C1=O (centres undefined) | 0.262 | 0.29 | < 0.0278 | 0.563 | 0.652 | 0.314 | 1.06 | 0.0379 | 0.816 | 0.678 |  |  |  |  |  |  |  |  |  |
| CSc1n[nH]c(N)c1C(=O)Nc1ccccc1 | > 100 | > 100 | > 100 |  | > 100 | > 100 | > 100 | > 100 | > 100 | > 100 |  |  |  |  |  |  |  |  |  |
| COc1cc2c(cc1Cc1c(F)cccc1Cl)nc(-c1c(F)cccc1Cl)n2Cc1c(F)cccc1Cl | 76.7 | > 100 | 91.3 | 75.7 | > 100 | > 100 |  | 59 | > 100 | 69.7 |  |  |  |  |  |  |  |  |  |
| COc1ccc(CC2COc3cc(O)cc(O)c3C2=O)cc1O (centres undefined) |  |  | > 100 | > 100 | > 100 | 43.8 | > 100 | > 100 | > 100 | > 100 |  |  |  |  |  |  |  |  |  |
| COc1ccc(CN2C3CC2CN(c2ccc(-c4cc(OCC(C)(C)O)cn5ncc(C#N)c45)cn2)C3)cn1 | > 100 |  | > 100 | 47.6 | > 100 | > 100 | > 100 | > 100 | > 100 | > 100 | 93.7 | 4.78 | 4.72 | > 100 | 2.99 | 15.1 | 17.5 | > 100 | 6.9 |
| CCON1CC(C(=O)OC)=C(O)C1=O | > 100 | > 100 | > 100 | > 100 | > 100 | > 100 |  | > 100 | > 100 | > 100 |  |  |  |  |  |  |  |  |  |
| N#Cc1nc(NC(=O)c2ccccc2C(=O)O)c(C#N)[nH]1 |  | > 100 | > 100 | > 100 | > 100 | > 100 | > 100 | > 100 | > 100 | > 100 |  |  |  |  |  |  |  |  |  |
| CC(=O)OC1C(COC(=O)c2ccccc2)OC(Nc2ncc(-c3ccc(Br)cc3)s2)C(OC(=O)c2ccccc2)C1OC(=O)c1ccccc1 (centres undefined) |  | > 100 |  | > 100 | > 100 | > 100 | > 100 | > 100 | > 100 | > 100 |  |  |  |  |  |  |  |  |  |
| COc1cc(NC(C)=O)ccc1C(=O)NN1C(=O)/C(=C/c2ccco2)N=C1c1ccccc1 |  | > 50 | > 50 | > 50 | > 50 | > 50 | > 50 | > 50 | > 50 | > 50 |  |  |  |  |  |  |  |  |  |
| CC(=O)O[C@H]1CCc2c(cc(N)c3c2C(=O)C[C@]2(C)C([C@H](C)CCCC(C)C)CCC32C)C1(C)C (some centres undefined) | > 100 | > 100 | > 100 | > 100 | > 100 | > 100 |  | > 100 | > 100 | > 100 |  |  |  |  |  |  |  |  |  |
| CC(NC(=O)N(C)C)NC(=O)N(C)C | > 10 | > 10 | > 10 | > 10 |  | > 10 | > 10 | > 10 | > 10 | > 10 |  |  |  |  |  |  |  |  |  |
| O=c1cc(N2CCCC2)[nH]c(=O)n1-c1ccccc1 | > 100 |  | > 100 | > 100 | > 100 | > 100 | > 100 | > 100 | > 100 | > 100 |  |  |  |  |  |  |  |  |  |
| CC(C(=O)O)C(C)(O)C(=O)O (centres undefined) | > 100 | > 100 | > 100 |  | > 100 | > 100 | > 100 | > 100 | > 100 | > 100 |  |  |  |  |  |  |  |  |  |
| OCc1ccc2c(c1)CC1(Cc3ccc(/C=N/O)cc3C1)C2 (centres undefined) | 11.5 |  | > 89.7 | > 76.7 | > 87.7 | 13.9 | > 100 | 10.8 | > 100 | > 100 |  |  |  |  |  |  |  |  |  |
| Cc1cnc2c(c1)C(=O)C1=C(C2=O)C2OC(=O)CC2OC1(C)C (centres undefined) | 0.822 | 0.865 | 0.405 | 2.58 | 0.951 | 0.326 |  | 0.148 | 2.04 | 0.826 |  |  |  |  |  |  |  |  |  |
| COC(=O)C1=Nc2c(C)nn(-c3ccccc3)c2N=C(c2ccccc2)C1 | > 10 | > 10 | > 10 | > 10 | > 10 | > 10 | > 10 | > 10 | > 10 |  |  |  |  |  |  |  |  |  |  |
| CCOC(=O)C1CCC(=O)N1C(=O)c1ccccc1 (centres undefined) | > 100 |  | > 100 | > 100 | > 100 |  | > 100 | > 100 | > 100 | > 100 |  |  |  |  |  |  |  |  |  |
| O=C(N/N=C/c1ccc(Br)cc1)N/N=C/c1ccc(Br)cc1 | 91.4 | 37.5 | 18 | 17.5 | 95.8 | > 100 | > 100 |  | 26.9 | 31.3 |  |  |  |  |  |  |  |  |  |
| CC12CCCC3(CC(=O)C(C)(C)C3C(=O)C1)C2 (centres undefined) |  | > 100 | > 100 | > 100 | > 100 | > 100 | > 100 | > 100 | > 100 | > 100 |  |  |  |  |  |  |  |  |  |
| O=C1CSC2=NC3=C(COC/C3=C\c3ccc(Br)cc3)C(c3ccc(Br)cc3)N12 (centres undefined) | > 100 | > 100 | > 100 | > 100 | > 100 | > 100 | > 100 | > 100 |  | > 100 |  |  |  |  |  |  |  |  |  |
| COc1cc2ccc1OCc1cccc(n1)COc1ccc(cc1OC)C=Nc1ccc(cc1)N=C2 | > 100 | > 100 | > 100 | > 100 | > 100 | > 100 | > 100 | > 100 |  | > 100 |  |  |  |  |  |  |  |  |  |
| CN(C)CCC(=O)/C=C\c1ccccc1 |  |  | 32.7 | > 100 | 35.7 | 29.3 | 29.6 | 39.3 | 30.9 | 33.9 |  |  |  |  |  |  |  |  |  |
